Reference: patent US8598365B2, “Herbicides” (Syngenta Limited, priority 2007, dated 2013)

Columns and labels:
Type in all cases: in vivo
[1] = system: Alopecurus myosuroides (ALOMY); assay: Example B pre-emergence herbicidal activity; conditions: 312 h, rate 250 g/ha, evaluated after 13 days, read-out: Pre-Emergence Activity ALOMY (100=total damage to plant; 0=no damage to plant)
Description: (§1) Seeds of a variety of test species were sown in standard soil in pots. After cultivation for one day (pre-emergence) or after 8 days cultivation (post-emergence) under controlled conditions in a glasshouse (at 24/16° C., day/night; 14 hours light; 65% humidity), the plants were sprayed with an aqueous spray solution derived from the formulation of the technical active ingredient in acetone/water (50:50) solution containing 0.5% Tween 20 (polyoxyethelyene sorbitan monolaurate, CAS RN 9005-64-5).
(§2) The test plants were then grown in a glasshouse under controlled conditions in a glasshouse (at 24/16° C., day/night; 14 hours light; 65% humidity) and watered twice daily. After 13 days for pre and post-emergence, the test was evaluated (100=total damage to plant; 0=no damage to plant).
(§3) Alopecurus myosuroides (ALOMY), Avena fatua (AVEFA), Setaria faberi (SETFA), Echinochloa crus-galli (ECHCG), Solanum nigrum (SOLNI) and Amaranthus retoflexus (AMARE)

[2] = system: Echinochloa crus-galli (ECHCG); assay: Example B pre-emergence herbicidal activity; conditions: 312 h, rate 250 g/ha, evaluated after 13 days, read-out: Pre-Emergence Activity ECHCG (100=total damage to plant; 0=no damage to plant)
Description: as §1, §2, §3

Avena fatua (AVEFA) [3] = assay: Example B pre-emergence herbicidal activity; conditions: 312 h, rate 250 g/ha, evaluated after 13 days, read-out: Pre-Emergence Activity AVEFA (100=total damage to plant; 0=no damage to plant)
Description: as §1, §2, §3

Setaria faberi (SETFA) [4] = assay: Example B pre-emergence herbicidal activity; conditions: 312 h, rate 250 g/ha, evaluated after 13 days, read-out: Pre-Emergence Activity SETFA (100=total damage to plant; 0=no damage to plant)
Description: as §1, §2, §3

[5] = system: Amaranthus retoflexus (AMARE); assay: Example B pre-emergence herbicidal activity; conditions: Amaranthus retroflexus, 312 h, rate 250 g/ha, evaluated after 13 days, read-out: Pre-Emergence Activity AMARE (100=total damage to plant; 0=no damage to plant)
Description: as §1, §2, §3

[6] = system: Alopecurus myosuroides (ALOMY); assay: Example B post-emergence herbicidal activity; conditions: 312 h, rate 250 g/ha, evaluated after 13 days, read-out: Post-emergence activity ALOMY (100=total damage to plant; 0=no damage to plant)
Description: as §1, §2, §3

[7] = system: Echinochloa crus-galli (ECHCG); assay: Example B post-emergence herbicidal activity; conditions: 312 h, rate 250 g/ha, evaluated after 13 days, read-out: Post-emergence activity ECHCG (100=total damage to plant; 0=no damage to plant)
Description: as §1, §2, §3

Avena fatua (AVEFA) [8] = assay: Example B post-emergence herbicidal activity; conditions: 312 h, rate 250 g/ha, evaluated after 13 days, read-out: Post-emergence activity AVEFA (100=total damage to plant; 0=no damage to plant)
Description: as §1, §2, §3

Setaria faberi (SETFA) [9] = assay: Example B post-emergence herbicidal activity; conditions: 312 h, rate 250 g/ha, evaluated after 13 days, read-out: Post-emergence activity SETFA (100=total damage to plant; 0=no damage to plant)
Description: as §1, §2, §3

[10] = system: Amaranthus retoflexus (AMARE); assay: Example B post-emergence herbicidal activity; conditions: Amaranthus retroflexus, 312 h, rate 250 g/ha, evaluated after 13 days, read-out: Post-emergence activity AMARE (100=total damage to plant; 0=no damage to plant)
Description: as §1, §2, §3

| Structure (SMILES) | pest or weed control at 250 g/ha [1] | pest or weed control at 250 g/ha [2] | pest or weed control at 250 g/ha (Avena fatua (AVEFA) [3]) | pest or weed control at 250 g/ha (Setaria faberi (SETFA) [4]) | pest or weed control at 250 g/ha [5] | pest or weed control at 250 g/ha [6] | pest or weed control at 250 g/ha [7] | pest or weed control at 250 g/ha (Avena fatua (AVEFA) [8]) | pest or weed control at 250 g/ha (Setaria faberi (SETFA) [9]) | pest or weed control at 250 g/ha [10] |
| --- | --- | --- | --- | --- | --- | --- | --- | --- | --- | --- |
| Cc1sc(-c2ccc(OC(F)F)cc2Cl)nc1C1=C(OC(=O)C(C)(C)C)[C@@H]2CC[C@@H](C2)C1=O [Compound P17] | 80% | 100% | 50% | 100% | 0% | 90% | 100% | 80% | 100% | 0% |
| CC(=O)OC1=C(c2nc(-c3ccc(Cl)cc3)ncc2C)C(=O)[C@H]2CC[C@@H]1C2 [Compound P18] | 20% | 70% | 0% | 60% | 0% | 10% | 80% | 0% | 90% | 40% |
| CC(=O)OC1=C(c2nc(-c3ccc(Cl)cc3)ncc2C)C(=O)[C@@H]2C[C@H]1C2(C)C [Compound P19] | 10% | 20% | 0% | 90% | 0% | 20% | 90% | 0% | 90% | 0% |
| CC(C)(C)C(=O)OC1=C(c2csc(-c3ccc(Cl)cc3)n2)C(=O)[C@@H]2CC[C@H]1C2 [Compound P22] | 0% | 0% | 0% | 30% | 0% | 0% | 20% | 0% | 70% | 0% |
| Cc1sc(-c2cccs2)nc1C1C(=O)[C@@H]2CC[C@@H](C2)C1=O (stereo partly shown) [Compound T2] | 0% | 0% | 0% | 50% | 0% | 0% | 30% | 0% | 70% | 0% |
| Cc1sc(-c2ccc(Cl)cc2Cl)nc1C1C(=O)[C@@H]2CC[C@@H](C2)C1=O (stereo partly shown) [Compound T3] | 60% | 80% | 0% | 90% | 0% | 90% | 100% | 60% | 100% | 0% |
| Cc1sc(-c2ccc(OC(F)(F)F)cc2)nc1C1C(=O)[C@@H]2CC[C@@H](C2)C1=O (stereo partly shown) [Compound T5, 3-[5-methyl-2-(4-trifluoromethoxyphenyl)thiazol-4-yl]bicyclo[3.2.1]octane-2,4-dione] | 50% | 80% | 0% | 90% | 0% | 70% | 100% | 0% | 100% | 0% |
